Assay results published in patent US20180214563A1, “IMMUNOSTIMULATORY NANOCARRIER” (University of Pittsburgh - Of the Commonwealth System of …, priority 2015, published 2018).

System: 4T1.2 cells
Experiment: In vitro cytotoxicity, MTT assay, 4T1.2
Format: cell-based, mouse
Conditions: 72 h
Experimental: 4T1.2 , PC3, Panc02, and B16 cells at 2000 cells/well were seeded in 96-well plates, respectively. […] After 3 days of incubation, 20 μL of 3-(4,5-dimethylthiazol-2-yl)-2,5-diphenyltetrazoliumbromide (MTT) in DPBS (5 mg/mL) was added to each well and cells were further incubated for 2 h. Medium was removed and MTT formazan crystals were solubilized by 100 μL of DMSO per well. Absorbance of each well was measured with a microplate reader at wavelength of 550 nm. Untreated wells were used as controls. Cell viability was calculated as [(ODtreated-ODblank)/(ODcontrol-ODblank)×100%].

## CC(=O)O[C@H]1C(=O)[C@@]2(C)[C@H]([C@H](OC(=O)c3ccccc3)[C@]3(O)C[C@H](OC(=O)[C@H](O)[C@@H](NC(=O)c4ccccc4)c4ccccc4)C(C)=C1C3(C)C)[C@]1(OC(C)=O)CO[C@@H]1C[C@@H]2O [PTX, paclitaxel]
  cytotoxicity (tumor cell growth inhibition): inhibited the tumor cell growth in a concentration-dependent manner
